US11352352B2, “Aminopyrimidine compound, preparation method therefor and use thereof” (BEIJING ADAMADLE BIOTECHNOLOGY LIMITED LIABILITY COMPANY, priority 2017, dated 2022)

How the values were obtained:
Assay in all cases: Cell proliferation inhibition experiment, CellTiter-Glo (CTG) method
Assay type in all cases: cell-based
A-431 = settings: Homo sapiens, A-431, 72 h, A-431 cells, 3 days
Procedure, shortened: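 IC50 values come from sigmoidal dose-response fits of percent survival, measured by CellTiter-Glo luminescence after 3 days' culture with compound. Nine-point, threefold series in triplicate, starting at 30 μM for A-431 and at 1.111 μM for NCI-H1975 and PC-9.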

PC-9 = settings: Homo sapiens, PC-9, 72 h, PC-9 cells, 3 days
Procedure, shortened: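 Cells in log-phase growth (viability above 90% by trypan blue) were seeded at 90 μL per well in black-walled, clear-bottom 96-well plates and incubated overnight at 37° C., 5% CO2. A T0 plate was read the next day. Test compounds were added at nine concentrations in triplicate with a solvent control. Viability was measured by CellTiter-Glo luminescence on EnVision, and IC50 came from non-linear S-curve fitting in GraphPad Prism 5.0.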

NCI-H1975 = settings: for IC50: Homo sapiens, NCI-H1975, 72 h, NCI-H1975 cells, CTG, 3 days; for A-431/NCI-H1975 Selectivity: ratio of A-431 IC50 to NCI-H1975 IC50
Procedure, shortened: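 NCI-H1975 cells with viability above 90% by trypan blue were seeded at 90 μL per well in black 96-well plates and incubated overnight at 37° C., 5% CO2. Compounds were added at nine concentrations in triplicate, and viability was measured with CellTiter-Glo luminescence on EnVision. IC50 came from non-linear S-curve fitting in GraphPad Prism 5.0.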

## C=CC(=O)Nc1cc(Nc2cc(-c3ccc4cnn(C)c4c3)ncn2)c(OC)cc1N1CCC(N2CCN(C(C)C)CC2)CC1 [compound 157]
A-431
  IC50: 1650 nM
PC-9
  IC50: 11 nM
NCI-H1975
  IC50: 32.7 nM
  A-431/NCI-H1975 Selectivity: 50.6

## C=CC(=O)Nc1cc(Nc2cc(-c3ccc4cnn(C)c4c3)ncn2)c(OC)cc1N1CCN(CCOC)CC1 [compound 159]
A-431
  IC50: 1530 nM
PC-9
  IC50: 27.9 nM
NCI-H1975
  IC50: 31.9 nM

## C=CC(=O)Nc1cc(Nc2cc(-c3ccc4cnn(C)c4c3)ncn2)c(OC(F)F)cc1N1C[C@@H](C)C(N)[C@@H](C)C1 (some centres unmarked) [compound 160]
A-431
  IC50: 2080 nM
PC-9
  IC50: 32.7 nM
NCI-H1975
  IC50: 39.2 nM
  A-431/NCI-H1975 Selectivity: 53.0

## C=CC(=O)Nc1cc(Nc2cc(-c3ccc4cnn(C)c4c3)ncn2)c(OC(F)F)cc1N1CCC(N2CCOCC2)CC1 [compound 161]
A-431
  IC50: 1030 nM
PC-9
  IC50: 19.9 nM
NCI-H1975
  IC50: 17.4 nM
  A-431/NCI-H1975 Selectivity: 59.3

## C=CC(=O)Nc1cc(Nc2cc(-c3ccc4cnn(C)c4c3)ncn2)c(OC(F)F)cc1N1CCC(N2C[C@@H](C)O[C@@H](C)C2)CC1 [compound 162]
A-431
  IC50: 763 nM
PC-9
  IC50: 18.9 nM
NCI-H1975
  IC50: 16.8 nM
  A-431/NCI-H1975 Selectivity: 45.4

## C=CC(=O)Nc1cc(Nc2cc(-c3ccc4cnn(C)c4c3)ncn2)c(OC(F)F)cc1N1CCC(N2C[C@@H](C)N(C)[C@@H](C)C2)CC1 [compound 163]
A-431
  IC50: 834 nM
PC-9
  IC50: 13.8 nM
NCI-H1975
  IC50: 18.5 nM
  A-431/NCI-H1975 Selectivity: 45.1

## C=CC(=O)Nc1cc(Nc2cc(-c3ccc4cnn(C)c4c3)ncn2)c(OC(F)F)cc1N(C)C1CCN(C)C1 (centres unmarked) [compound 165]
A-431
  IC50: 2650 nM
PC-9
  IC50: 40.7 nM
NCI-H1975
  IC50: 50 nM
  A-431/NCI-H1975 Selectivity: 53.0

## C=CC(=O)Nc1cc(Nc2cc(-c3ccc4cnn(C)c4c3)ncn2)c(OC)cc1N1CCC(N(CC)CC)CC1 [compound 166]
A-431
  IC50: 986 nM
PC-9
  IC50: 8.9 nM
NCI-H1975
  IC50: 16 nM

## C=CC(=O)Nc1cc(Nc2cc(-c3ccc4cnn(C)c4c3)ncn2)c(OC(F)F)cc1N1CCC(N(CC)CC)CC1 [compound 167]
A-431
  IC50: 1050 nM
PC-9
  IC50: 17.1 nM
NCI-H1975
  IC50: 16.5 nM

## C=CC(=O)Nc1cc(Nc2cc(-c3ccc4cnn(C)c4c3)ncn2)c(OC)cc1OCCN(C)C [compound 169]
A-431
  IC50: 1640 nM
PC-9
  IC50: 11.4 nM
NCI-H1975
  IC50: 34.3 nM
  A-431/NCI-H1975 Selectivity: 47.9

## C=CC(=O)Nc1cc(Nc2cc(-c3ccc4cnn(C)c4c3)ncn2)c(OC(F)F)cc1OCCN(C)C [compound 170]
A-431
  IC50: 1650 nM
PC-9
  IC50: 28 nM
NCI-H1975
  IC50: 37.4 nM
  A-431/NCI-H1975 Selectivity: 44.1

## C=CC(=O)Nc1cc(Nc2cc(-c3ccc4c(cnn4C)c3)ncn2)c(OC(F)F)cc1OCCN(C)C [compound 171]
A-431
  IC50: 743 nM
PC-9
  IC50: 38 nM
NCI-H1975
  IC50: 26.2 nM
  A-431/NCI-H1975 Selectivity: 28.4

## C=CC(=O)Nc1cc(Nc2cc(-c3ccc4cnn(C)c4c3)ncn2)c(OC(F)F)cc1N1CCC(N(C)C)CC1 [compound 174]
A-431
  IC50: 1330 nM
PC-9
  IC50: 15.4 nM
NCI-H1975
  IC50: 23.5 nM
  A-431/NCI-H1975 Selectivity: 56.4

## C=CC(=O)Nc1cc(Nc2cc(-c3ccc4c(cnn4C)c3)ncn2)c(OC(F)F)cc1N1CCC(N(C)C)CC1 [compound 175]
A-431
  IC50: 793 nM
PC-9
  IC50: 26 nM
NCI-H1975
  IC50: 8.1 nM
  A-431/NCI-H1975 Selectivity: 98.0

## C=CC(=O)Nc1cc(Nc2nccc(-c3ccc4cnn(C)c4c3)n2)c(OC(F)F)cc1N(C)CCN(C)C [compound 177]
A-431
  IC50: 1470 nM
PC-9
  IC50: 23.5 nM
NCI-H1975
  IC50: 19 nM
  A-431/NCI-H1975 Selectivity: 77.3

## C=CC(=O)Nc1c(OCCN(C)C)cc(OC)c(Nc2cc(-c3ccc4c(cnn4C)c3)ncn2)c1F [compound 178]
A-431
  IC50: 2000 nM
PC-9
  IC50: 34.6 nM
NCI-H1975
  IC50: 42.9 nM
  A-431/NCI-H1975 Selectivity: 46.7

## C=CC(=O)Nc1cc(Nc2cc(-c3ccc4cnn(C)c4c3)ncn2)c(OC(F)F)cc1NCCN(C)C [compound 181]
A-431
  IC50: 1680 nM
PC-9
  IC50: 21.4 nM
NCI-H1975
  IC50: 45.8 nM
  A-431/NCI-H1975 Selectivity: 36.7
